What was measured:
Test in all cases: KINOMEscan competition binding
Details in all cases: compound 10.0 µM
[1] = target: FLT1 (human) (UniProt P17948)
[2] = target: CLK1 (human) (UniProt P49759)
[3] = target: TYK2 JH1 catalytic (human) (UniProt P29597)
[4] = target: EGFR (human) (UniProt P00533)
[5] = target: CSNK2A1 (human) (UniProt P68400)
[6] = target: RPS6KA4 KD2 (human) (UniProt O75676)
[7] = target: CAMK1D (human) (UniProt Q8IU85)
[8] = target: MAP2K4 (human) (UniProt P45985)
[9] = target: PIK3CA (human) (UniProt P42336)
[10] = target: MAPK6 (human) (UniProt Q16659)
[11] = target: STK39 (human) (UniProt Q9UEW8)
[12] = target: CDK2 (human) (UniProt P24941)
[13] = target: STK10 (human) (UniProt O94804)
[14] = target: MARK3 (human) (UniProt P27448)
[15] = target: TEC (human) (UniProt P42680)
[16] = target: MYLK3 (human) (UniProt Q32MK0)
[17] = target: MST4 (human) (UniProt Q9P289)
[18] = tested on: PIK3CA (human), P42336 [E542K]
[19] = tested on: BMX (human), P51813 [V600E]
[20] = target: YSK4 (human) (UniProt Q56UN5)
[21] = target: LIMK2 (human) (UniProt P53671)
[22] = target: EIF2AK2 (human) (UniProt P19525)
[23] = target: EPHA7 (human) (UniProt Q15375)
[24] = target: MAPK10 (human) (UniProt P53779)
[25] = target: DYRK1B (human) (UniProt Q9Y463)
[26] = target: MAP4K4 (human) (UniProt O95819)
[27] = target: CSNK1A1L (human) (UniProt Q8N752)
[28] = target: LATS1 (human) (UniProt O95835)
[29] = target: NUAK1 (human) (UniProt O60285)
[30] = target: RPS6KA6 KD2 (human) (UniProt Q9UK32)
[31] = target: TNK2 (human) (UniProt Q07912)
[32] = target: MERTK (human) (UniProt Q12866)
[33] = target: SRC (human) (UniProt P12931)
[34] = target: NTRK1 (human) (UniProt P04629)
[35] = target: PAK4 (human) (UniProt O96013)
[36] = target: ULK2 (human) (UniProt Q8IYT8)
[37] = tested on: EGFR (human), P00533 [A750P; 747-749 del]
[38] = target: RPS6KA2 KD2 (human) (UniProt Q15349)
[39] = target: MAP2K7 (human) (UniProt O14733)
[40] = target: MTOR (human) (UniProt P42345)

CAMK1D (human), sequence (Q8IU85 whole entry, looked up): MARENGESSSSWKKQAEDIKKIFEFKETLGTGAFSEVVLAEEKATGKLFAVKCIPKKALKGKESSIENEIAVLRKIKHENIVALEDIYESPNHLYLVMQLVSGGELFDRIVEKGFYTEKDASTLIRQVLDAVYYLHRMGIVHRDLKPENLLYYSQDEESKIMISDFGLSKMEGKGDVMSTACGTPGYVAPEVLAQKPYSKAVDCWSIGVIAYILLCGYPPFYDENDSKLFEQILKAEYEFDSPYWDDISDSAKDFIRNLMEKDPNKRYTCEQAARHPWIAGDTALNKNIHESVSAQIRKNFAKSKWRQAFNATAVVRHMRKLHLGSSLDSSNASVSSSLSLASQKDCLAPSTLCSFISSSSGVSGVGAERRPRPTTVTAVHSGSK
MAPK10 (human), sequence (P53779 whole entry, looked up): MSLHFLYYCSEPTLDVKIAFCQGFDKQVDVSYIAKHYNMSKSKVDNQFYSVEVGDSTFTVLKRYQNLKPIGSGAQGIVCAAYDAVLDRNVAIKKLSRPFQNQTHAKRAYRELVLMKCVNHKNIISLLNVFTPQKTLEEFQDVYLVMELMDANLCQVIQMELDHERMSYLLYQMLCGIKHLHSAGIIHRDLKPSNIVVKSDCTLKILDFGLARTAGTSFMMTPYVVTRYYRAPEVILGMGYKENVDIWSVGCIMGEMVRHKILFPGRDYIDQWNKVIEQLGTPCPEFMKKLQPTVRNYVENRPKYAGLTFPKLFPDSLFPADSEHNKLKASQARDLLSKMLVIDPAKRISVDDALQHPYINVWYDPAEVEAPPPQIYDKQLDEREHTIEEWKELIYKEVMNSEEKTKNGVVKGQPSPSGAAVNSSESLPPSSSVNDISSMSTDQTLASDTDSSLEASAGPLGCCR
EPHA7 (human), sequence (Q15375 whole entry, looked up): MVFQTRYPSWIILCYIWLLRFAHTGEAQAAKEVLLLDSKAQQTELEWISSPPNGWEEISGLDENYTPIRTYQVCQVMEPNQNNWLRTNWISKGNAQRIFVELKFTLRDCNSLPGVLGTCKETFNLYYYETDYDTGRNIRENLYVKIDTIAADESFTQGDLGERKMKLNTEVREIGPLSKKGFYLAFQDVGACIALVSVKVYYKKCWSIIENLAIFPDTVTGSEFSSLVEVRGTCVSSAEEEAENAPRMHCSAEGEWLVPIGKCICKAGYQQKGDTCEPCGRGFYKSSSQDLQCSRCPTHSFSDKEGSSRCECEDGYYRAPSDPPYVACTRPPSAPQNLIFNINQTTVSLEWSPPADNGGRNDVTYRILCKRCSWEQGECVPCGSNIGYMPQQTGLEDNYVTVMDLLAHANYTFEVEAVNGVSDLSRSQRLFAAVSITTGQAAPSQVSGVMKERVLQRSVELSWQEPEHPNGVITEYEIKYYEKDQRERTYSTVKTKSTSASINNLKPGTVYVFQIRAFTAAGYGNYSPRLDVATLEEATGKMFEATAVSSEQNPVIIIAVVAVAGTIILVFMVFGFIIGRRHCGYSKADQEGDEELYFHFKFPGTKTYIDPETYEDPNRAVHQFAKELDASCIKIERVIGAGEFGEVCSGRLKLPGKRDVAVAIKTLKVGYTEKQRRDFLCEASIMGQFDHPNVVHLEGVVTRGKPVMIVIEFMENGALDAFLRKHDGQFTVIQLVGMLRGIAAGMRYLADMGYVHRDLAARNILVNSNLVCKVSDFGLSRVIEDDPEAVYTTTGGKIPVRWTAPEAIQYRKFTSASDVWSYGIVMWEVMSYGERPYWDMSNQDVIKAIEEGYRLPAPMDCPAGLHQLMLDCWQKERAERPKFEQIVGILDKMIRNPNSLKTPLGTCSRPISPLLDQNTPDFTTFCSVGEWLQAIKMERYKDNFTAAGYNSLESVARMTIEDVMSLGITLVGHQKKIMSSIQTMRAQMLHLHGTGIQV
MERTK (human), sequence (Q12866 whole entry, looked up): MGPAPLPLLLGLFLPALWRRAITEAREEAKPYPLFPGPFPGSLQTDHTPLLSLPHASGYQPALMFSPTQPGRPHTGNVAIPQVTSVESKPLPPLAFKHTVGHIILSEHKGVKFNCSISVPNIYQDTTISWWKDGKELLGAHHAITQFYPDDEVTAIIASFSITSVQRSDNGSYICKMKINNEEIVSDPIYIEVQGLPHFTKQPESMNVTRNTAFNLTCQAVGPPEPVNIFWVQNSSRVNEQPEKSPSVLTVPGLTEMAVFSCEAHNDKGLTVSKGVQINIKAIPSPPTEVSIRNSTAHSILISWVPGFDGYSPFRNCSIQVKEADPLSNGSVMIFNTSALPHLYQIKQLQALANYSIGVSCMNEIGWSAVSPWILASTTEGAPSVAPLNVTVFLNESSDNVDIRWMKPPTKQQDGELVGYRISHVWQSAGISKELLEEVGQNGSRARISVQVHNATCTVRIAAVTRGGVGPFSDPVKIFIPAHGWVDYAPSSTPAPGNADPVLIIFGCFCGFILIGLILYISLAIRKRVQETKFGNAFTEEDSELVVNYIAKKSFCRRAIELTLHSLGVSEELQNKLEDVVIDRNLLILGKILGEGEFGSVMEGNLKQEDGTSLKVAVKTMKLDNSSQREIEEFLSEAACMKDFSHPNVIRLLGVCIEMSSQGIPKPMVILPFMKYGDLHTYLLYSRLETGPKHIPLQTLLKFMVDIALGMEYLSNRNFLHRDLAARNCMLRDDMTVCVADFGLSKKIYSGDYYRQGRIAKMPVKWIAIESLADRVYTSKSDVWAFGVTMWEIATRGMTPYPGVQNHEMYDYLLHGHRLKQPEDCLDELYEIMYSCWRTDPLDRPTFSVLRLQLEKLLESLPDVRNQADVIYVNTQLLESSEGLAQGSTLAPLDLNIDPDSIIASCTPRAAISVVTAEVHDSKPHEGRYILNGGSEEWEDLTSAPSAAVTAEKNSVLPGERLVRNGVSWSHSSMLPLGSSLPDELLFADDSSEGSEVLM
MAP2K4 (human), sequence (P45985 whole entry, looked up): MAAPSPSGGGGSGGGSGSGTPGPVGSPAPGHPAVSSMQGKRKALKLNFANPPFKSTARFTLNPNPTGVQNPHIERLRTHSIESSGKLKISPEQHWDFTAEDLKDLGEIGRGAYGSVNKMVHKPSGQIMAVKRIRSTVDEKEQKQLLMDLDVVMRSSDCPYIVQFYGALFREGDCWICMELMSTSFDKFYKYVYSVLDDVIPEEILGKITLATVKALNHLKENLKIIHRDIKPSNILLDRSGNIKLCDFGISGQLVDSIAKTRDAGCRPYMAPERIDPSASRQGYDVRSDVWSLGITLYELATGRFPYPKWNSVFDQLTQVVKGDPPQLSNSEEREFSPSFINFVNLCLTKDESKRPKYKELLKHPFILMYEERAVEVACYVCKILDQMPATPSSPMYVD
YSK4 (human), sequence (Q56UN5 whole entry, looked up): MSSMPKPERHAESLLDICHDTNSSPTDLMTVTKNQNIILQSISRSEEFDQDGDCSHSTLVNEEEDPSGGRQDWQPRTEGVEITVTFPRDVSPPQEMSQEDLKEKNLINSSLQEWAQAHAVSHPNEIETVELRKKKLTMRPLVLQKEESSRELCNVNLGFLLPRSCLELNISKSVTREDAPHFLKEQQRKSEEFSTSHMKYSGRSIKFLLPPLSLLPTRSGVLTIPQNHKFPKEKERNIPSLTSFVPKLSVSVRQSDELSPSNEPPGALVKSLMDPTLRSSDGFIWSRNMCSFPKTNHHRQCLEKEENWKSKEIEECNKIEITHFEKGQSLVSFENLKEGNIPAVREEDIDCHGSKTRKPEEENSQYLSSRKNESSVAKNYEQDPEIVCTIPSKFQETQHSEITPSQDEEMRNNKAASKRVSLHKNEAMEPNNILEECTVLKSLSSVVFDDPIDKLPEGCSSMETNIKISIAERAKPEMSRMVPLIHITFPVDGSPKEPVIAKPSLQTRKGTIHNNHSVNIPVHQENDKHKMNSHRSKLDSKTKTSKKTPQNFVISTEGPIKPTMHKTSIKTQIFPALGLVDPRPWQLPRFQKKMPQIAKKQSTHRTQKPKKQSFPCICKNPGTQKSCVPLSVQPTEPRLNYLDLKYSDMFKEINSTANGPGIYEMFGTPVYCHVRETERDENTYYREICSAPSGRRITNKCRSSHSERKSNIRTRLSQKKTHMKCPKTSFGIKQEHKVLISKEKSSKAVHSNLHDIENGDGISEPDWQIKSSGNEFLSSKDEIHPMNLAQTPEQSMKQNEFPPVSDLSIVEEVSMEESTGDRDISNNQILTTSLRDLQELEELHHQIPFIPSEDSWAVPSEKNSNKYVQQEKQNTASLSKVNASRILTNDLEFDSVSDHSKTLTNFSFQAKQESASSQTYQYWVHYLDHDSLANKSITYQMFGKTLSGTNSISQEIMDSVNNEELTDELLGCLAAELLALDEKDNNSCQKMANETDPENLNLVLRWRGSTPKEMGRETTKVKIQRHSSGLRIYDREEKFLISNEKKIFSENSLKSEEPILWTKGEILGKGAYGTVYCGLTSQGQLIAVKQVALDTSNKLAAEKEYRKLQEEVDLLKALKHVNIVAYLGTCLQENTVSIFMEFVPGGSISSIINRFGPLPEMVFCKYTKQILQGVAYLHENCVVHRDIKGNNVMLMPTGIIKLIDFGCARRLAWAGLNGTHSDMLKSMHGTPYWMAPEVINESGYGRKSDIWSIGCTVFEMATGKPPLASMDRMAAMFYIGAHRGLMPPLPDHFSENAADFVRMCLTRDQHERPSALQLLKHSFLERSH
CSNK2A1 (human), sequence (P68400 whole entry, looked up): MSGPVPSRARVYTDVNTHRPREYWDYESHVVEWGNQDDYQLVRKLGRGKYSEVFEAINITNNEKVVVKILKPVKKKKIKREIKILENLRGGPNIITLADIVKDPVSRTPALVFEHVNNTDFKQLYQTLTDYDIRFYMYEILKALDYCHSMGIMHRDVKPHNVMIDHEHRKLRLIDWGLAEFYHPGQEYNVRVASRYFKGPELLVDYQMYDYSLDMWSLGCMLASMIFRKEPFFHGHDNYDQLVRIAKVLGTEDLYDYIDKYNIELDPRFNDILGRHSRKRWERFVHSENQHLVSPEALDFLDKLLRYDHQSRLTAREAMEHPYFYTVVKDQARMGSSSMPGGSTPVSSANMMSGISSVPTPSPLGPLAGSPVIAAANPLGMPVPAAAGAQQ

Compound	kinase still bound, per cent of control [1]	kinase still bound, per cent of control [2]	kinase still bound, per cent of control [3]	kinase still bound, per cent of control [5]	kinase still bound, per cent of control [6]	kinase still bound, per cent of control [7]	kinase still bound, per cent of control [8]	kinase still bound, per cent of control [9]	kinase still bound, per cent of control [10]	kinase still bound, per cent of control [11]	kinase still bound, per cent of control [12]	kinase still bound, per cent of control [13]	kinase still bound, per cent of control [14]	kinase still bound, per cent of control [15]	kinase still bound, per cent of control [16]	kinase still bound, per cent of control [17]	kinase still bound, per cent of control [18]	kinase still bound, per cent of control [19]	kinase still bound, per cent of control [20]	kinase still bound, per cent of control [21]	other results
Cc1cn(-c2cc(C(=O)Nc3ccc(C)c(NC(=O)c4ccno4)c3)cc(C(F)(F)F)c2)cn1	100%	100%	100%	100%	100%	100%	100%	100%	100%	100%	100%	100%	100%	100%	100%	100%	100%	1.3%	100%	100%	kinase still bound, per cent of control [4]: 100%; kinase still bound, per cent of control [22]: 100%; kinase still bound, per cent of control [23]: 100%; kinase still bound, per cent of control [24]: 100%; kinase still bound, per cent of control [25]: 100%; kinase still bound, per cent of control [26]: 100%; kinase still bound, per cent of control [27]: 100%; kinase still bound, per cent of control [28]: 100%; kinase still bound, per cent of control [29]: 100%; kinase still bound, per cent of control [30]: 100%; kinase still bound, per cent of control [31]: 100%; kinase still bound, per cent of control [32]: 100%; kinase still bound, per cent of control [33]: 2.4%; kinase still bound, per cent of control [34]: 100%; kinase still bound, per cent of control [35]: 100%; kinase still bound, per cent of control [36]: 100%; kinase still bound, per cent of control [37]: 100%; kinase still bound, per cent of control [38]: 100%
CCOc1cc(N2CCC(O)CC2)ccc1Nc1ncc2c(n1)N(C)c1ccccc1C(=O)N2C	100%	100%	100%	100%	100%	100%	100%	100%	100%	100%	100%	100%	100%	100%	100%	100%	100%	100%	100%	100%	kinase still bound, per cent of control [4]: 100%; kinase still bound, per cent of control [22]: 100%; kinase still bound, per cent of control [23]: 100%; kinase still bound, per cent of control [24]: 100%; kinase still bound, per cent of control [25]: 100%; kinase still bound, per cent of control [26]: 100%; kinase still bound, per cent of control [27]: 100%; kinase still bound, per cent of control [28]: 100%; kinase still bound, per cent of control [29]: 100%; kinase still bound, per cent of control [30]: 31%; kinase still bound, per cent of control [31]: 17%; kinase still bound, per cent of control [32]: 100%; kinase still bound, per cent of control [33]: 100%; kinase still bound, per cent of control [34]: 100%; kinase still bound, per cent of control [35]: 100%; kinase still bound, per cent of control [36]: 100%; kinase still bound, per cent of control [37]: 100%; kinase still bound, per cent of control [38]: 100%
CCc1nc(-c2cccc(C)c2)c(-c2ccnc(NC(=O)c3ccccc3)c2)s1	31%	92%	100%	100%	100%	100%	95%	100%	85%	100%	100%	59%	72%	100%	93%	100%	100%	23%	64%	94%	kinase still bound, per cent of control [39]: 100%; kinase still bound, per cent of control [40]: 100%; kinase still bound, per cent of control [22]: 94%; kinase still bound, per cent of control [23]: 92%; kinase still bound, per cent of control [24]: 0%; kinase still bound, per cent of control [25]: 90%; kinase still bound, per cent of control [27]: 1.3%; kinase still bound, per cent of control [28]: 100%; kinase still bound, per cent of control [29]: 100%; kinase still bound, per cent of control [30]: 4.3%; kinase still bound, per cent of control [31]: 78%; kinase still bound, per cent of control [32]: 100%; kinase still bound, per cent of control [33]: 14%; kinase still bound, per cent of control [34]: 100%; kinase still bound, per cent of control [35]: 86%; kinase still bound, per cent of control [36]: 100%; kinase still bound, per cent of control [38]: 86%
